Test: Preliminary solubility trials (stability of carglumic acid solutions with NaOH, phosphate or HCl)
Type: physicochemical
Source text: Preliminary solubility trials have been performed using carglumic acid solutions buffered at pH from 5.0 to 5.7 with NaOH (0.5 M) or phosphate; the test were not successful since the solutions were not stable and gave an unknown degradation product (with molecular ion at 159 [m+H]+ detected in HPLC-mass-spectrometry) not present in the solution of carglumic acid in water.

- stability of solution (buffered at pH from 5.0 to 5.7 with NaOH (0.5 M) or phosphate, unknown degradation product formed): not stable
- stability of solution (in HCl 0.5 M, up to 24 hours, two known impurities above the accepted limits): did not result stable
Compound: NC(=O)N[C@@H](CCC(=O)O)C(=O)O [carglumic acid, Carglumic acid]

Reference: patent US11103474B2, “Pharmaceutical parenteral formulation containing carglumic acid” (RECORDATI INDUSTRIA CHIMICA E FARMACEUTICA S.P.A., priority 2016, dated 2021)
